31 compounds from patent US20250136596A1, “MEMBRANE-ASSOCIATED TYROSINE- AND THREONINE-SPECIFIC CDC2-INHIBITORY KINASE (PKMYT1) INHIBITORS AND USES THEREOF” (Insilico Medicine IP Limited, priority 2022, published 2025) can be followed below.

This assay has as its target PKMYT1 (Homo sapiens (Human), UniProt Q99640). As to the kind of experiment: PKMYT1 HTRF Assay. As to conditions: Tracer 178, GST-Tb; compound 10 μM to 0.5 nM; read-out: MYT1 HTRF IC50. Format: binding. The method in brief: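 Compound (final 10 μM to 0.5 nM) preincubated with PKMYT1 enzyme 15 min at 25° C, then Tracer 178 added for 60 min at 25° C. GST-Tb added, 15 min at 25° C, before HTRF readout.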

Where only a bound is given, the exact number is not on record here.

Chain of PKMYT1 (Q99640 whole entry): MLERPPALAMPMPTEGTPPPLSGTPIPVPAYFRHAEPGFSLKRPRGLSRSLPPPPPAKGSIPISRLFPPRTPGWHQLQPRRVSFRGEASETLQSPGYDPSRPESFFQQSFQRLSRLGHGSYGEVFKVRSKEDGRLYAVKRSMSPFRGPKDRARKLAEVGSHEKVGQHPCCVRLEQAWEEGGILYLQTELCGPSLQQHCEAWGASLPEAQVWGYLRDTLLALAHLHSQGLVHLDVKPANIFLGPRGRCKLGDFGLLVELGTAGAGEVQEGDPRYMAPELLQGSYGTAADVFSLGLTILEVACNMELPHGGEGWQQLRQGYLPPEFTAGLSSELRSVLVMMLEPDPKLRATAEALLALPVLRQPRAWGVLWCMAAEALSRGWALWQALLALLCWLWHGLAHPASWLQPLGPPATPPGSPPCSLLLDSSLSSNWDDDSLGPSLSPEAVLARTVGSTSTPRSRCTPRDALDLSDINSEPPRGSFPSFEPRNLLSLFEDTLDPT

Regarding `Cc1ccc(O)c(C)c1-c1cnc2[nH]c(-c3cnc(N4CC5CC4CO5)nc3)cc2c1C#N` [Example 42, (R)-2-(2-((1S,4S)-2-oxa-5-azabicyclo[2.2.1]heptan-5-yl)pyrimidin-5-yl)-5-(3-hydroxy-2,6-dimethylphenyl)-1H-pyrrolo[2,3-b]pyridine-4-carbonitrile], the IC50 is under 0.01 µM. `Cc1ccc(O)c(C)c1-c1cnc2[nH]c(-c3cnc(N)nc3)c(C#CC(C)(C)O)c2n1` [Example 14, 3-(6-(2-aminopyrimidin-5-yl)-7-(3-hydroxy-3-methylbut-1-yn-1-yl)-5H-pyrrolo[2,3-b]pyrazin-2-yl)-2,4-dimethylphenol]: the IC50 is under 0.01 µM.

On to `Cc1ncc(-c2cc3c(C(F)(F)F)c(-c4c(C)ccc(O)c4C)cnc3[nH]2)cn1` [Example 31, (R)-2,4-dimethyl-3-(2-(2-methylpyrimidin-5-yl)-4-(trifluoromethyl)-1H-pyrrolo[2,3-b]pyridin-5-yl)phenol], for which the IC50 is under 0.01 µM. With `Cc1ncc(-c2[nH]c3ncc(-c4c(C)ccc(O)c4C)c(C#N)c3c2Cl)s1` [Example 60, (R)-3-chloro-5-(3-hydroxy-2,6-dimethylphenyl)-2-(2-methylthiazol-5-yl)-1H-pyrrolo[2,3-b]pyridine-4-carbonitrile], the IC50 was under 0.01 µM.

Consider `Cc1ncc(-c2[nH]c3ncc(-c4c(C)ccc(O)c4C)cc3c2C#N)cn1` [Example 27, 5-(3-hydroxy-2,6-dimethylphenyl)-2-(2-methylpyrimidin-5-yl)-1H-pyrrolo[2,3-b]pyridine-3-carbonitrile], for which the IC50 was 0.01 to 0.05 µM. `Cc1ccc(O)c(C)c1-c1cnc2[nH]c(-c3cnc[nH]3)cc2c1C#N` [Example 125, (S)-5-(3-hydroxy-2,6-dimethylphenyl)-2-(1H-imidazol-5-yl)-1H-pyrrolo[2,3-b]pyridine-4-carbonitrile]: the IC50 was under 0.01 µM. Consider `Cc1ccc(O)c(C)c1-c1cnc2[nH]c(-c3cnc(C4CC4)nc3)cc2c1C#N` [Example 56, (S)-2-(2-cyclopropylpyrimidin-5-yl)-5-(3-hydroxy-2,6-dimethylphenyl)-1H-pyrrolo[2,3-b]pyridine-4-carbonitrile], for which the IC50 is under 0.01 µM. On to `CCc1c(O)ccc(C)c1-c1cnc2[nH]c(-c3cnc(C)nc3)cc2c1C#N` [Example 91, (R)-5-(2-ethyl-3-hydroxy-6-methylphenyl)-2-(2-methylpyrimidin-5-yl)-1H-pyrrolo[2,3-b]pyridine-4-carbonitrile], for which the IC50 fell in the range of 0.01 to 0.05 µM.

As for `COCCn1ncc(-c2[nH]c3ncc(-c4c(C)ccc(O)c4C)c(C#N)c3c2Cl)cc1=O` [Example 67, (R)-3-chloro-5-(3-hydroxy-2,6-dimethylphenyl)-2-(1-(2-methoxyethyl)-6-oxo-1,6-dihydropyridazin-4-yl)-1H-pyrrolo[2,3-b]pyridine-4-carbonitrile], the IC50 is under 0.01 µM. With `Cc1ncc(-c2cc3c(C(N)=O)c(-c4c(C)ccc(O)c4C)cnc3[nH]2)cn1` [Example 34, 5-(3-hydroxy-2,6-dimethylphenyl)-2-(2-methylpyrimidin-5-yl)-1H-pyrrolo[2,3-b]pyridine-4-carboxamide], the IC50 was in the range of 0.05 to 0.5 µM. Take `Cc1ccc(O)c(C)c1-c1cnc2[nH]c(-c3cnc(CN)nc3)cc2c1C#N` [Example 129, (S)-2-(2-(aminomethyl)pyrimidin-5-yl)-5-(3-hydroxy-2,6-dimethylphenyl)-1H-pyrrolo[2,3-b]pyridine-4-carbonitrile]: the IC50 was under 0.01 µM. As for `Cc1ncc(-c2[nH]c3ncc(-c4c(C)ccc(O)c4C)c(C#N)c3c2C#CC(C)(C)O)cn1` [Example 110, (S)-5-(3-hydroxy-2,6-dimethylphenyl)-3-(3-hydroxy-3-methylbut-1-yn-1-yl)-2-(2-methylpyrimidin-5-yl)-1H-pyrrolo[2,3-b]pyridine-4-carbonitrile], the IC50 was under 0.01 µM.

As to `Cc1ccc(O)c(C)c1-c1cnc2[nH]c(-c3cnc(NC4CC4)nc3)cc2c1C#N` [Example 47, (R)-2-(2-(cyclopropylamino)pyrimidin-5-yl)-5-(3-hydroxy-2,6-dimethylphenyl)-1H-pyrrolo[2,3-b]pyridine-4-carbonitrile], the IC50 is under 0.01 µM. Turning to `Cc1ccc(O)c(C)c1-c1cnc2[nH]c(-c3cnn(CCCO)c3)cc2c1C#N` [Example 131, (S)-5-(3-hydroxy-2,6-dimethylphenyl)-2-(1-(3-hydroxypropyl)-1H-pyrazol-4-yl)-1H-pyrrolo[2,3-b]pyridine-4-carbonitrile], the IC50 is under 0.01 µM.

Regarding `Cc1ncc(-c2[nH]c3ncc(-c4c(C)ccc(O)c4C)nc3c2F)cn1` [Example 12, 3-(7-fluoro-6-(2-methylpyrimidin-5-yl)-5H-pyrrolo[2,3-b]pyrazin-2-yl)-2,4-dimethylphenol], the IC50 lay in the range of 0.01 to 0.05 µM. The value for `Cc1ccc(O)c(C)c1-c1cnc2[nH]c(-c3cnn(CC(C)(C)O)c3)cc2c1C#N` [Example 117, (S)-5-(3-hydroxy-2,6-dimethylphenyl)-2-(1-(2-hydroxy-2-methylpropyl)-1H-pyrazol-4-yl)-1H-pyrrolo[2,3-b]pyridine-4-carbonitrile] was under 0.01 µM; that for `C#Cc1cc(-c2cc3c(C#N)c(-c4c(C)ccc(O)c4C)cnc3[nH]2)cnc1N` [Example 87, (R)-2-(6-amino-5-ethynylpyridin-3-yl)-5-(3-hydroxy-2,6-dimethylphenyl)-1H-pyrrolo[2,3-b]pyridine-4-carbonitrile] was under 0.01 µM. Regarding `Cc1ccc(O)c(C)c1-c1cnc2[nH]c(-c3cnn(C)c(=O)c3)cc2c1C#N` [Example 65, 5-(3-hydroxy-2,6-dimethylphenyl)-2-(1-methyl-6-oxo-1,6-dihydropyridazin-4-yl)-1H-pyrrolo[2,3-b]pyridine-4-carbonitrile], the IC50 is under 0.01 µM.

For the compound `Cc1ncc(-c2[nH]c3ncc(-c4c(C)ccc(O)c4C)nc3c2Cl)cn1` [Example 16, 3-(7-chloro-6-(2-methylpyrimidin-5-y1)-5H-pyrrolo[2,3-b]pyrazin-2-yl)-2,4-dimethylphenol], the IC50 was under 0.01 µM. In the case of `Cc1ccc(O)c(C)c1-c1cnc2[nH]c(-c3cnc(N4CCC(C(N)=O)C4)nc3)c(Cl)c2c1C#N` [Example 73, (S)-1-(5-((R)-3-chloro-4-cyano-5-(3-hydroxy-2,6-dimethylphenyl)-1H-pyrrolo[2,3-b]pyridin-2-yl)pyrimidin-2-yl)pyrrolidine-3-carboxamide], the IC50 is under 0.01 µM. As to `Cc1ncc(-c2cc3nc(-c4c(C)ccc(O)c4C)cnc3[nH]2)cn1` [Example 15, 2,4-dimethyl-3-(6-(2-methylpyrimidin-5-yl)-5H-pyrrolo[2,3-b]pyrazin-2-yl)phenol], the 50% inhibitory concentration (IC50) is 0.01 to 0.05 µM. Regarding `Cc1ncc(-c2[nH]c3ncc(-c4c(C)ccc(O)c4C)c(C#N)c3c2Sc2ccccc2)cn1` [Example 113, 5-(3-hydroxy-2,6-dimethylphenyl)-2-(2-methylpyrimidin-5-yl)-3-(phenylthio)-1H-pyrrolo[2,3-b]pyridine-4-carbonitrile], the IC50 is 0.05 to 0.5 µM. With `Cc1ccc(O)c(C)c1-c1cnc2[nH]c(-c3cnc(N)nc3)c(C)c2c1C#N` [Example 106, (R)-2-(2-aminopyrimidin-5-yl)-5-(3-hydroxy-2,6-dimethylphenyl)-3-methyl-1H-pyrrolo[2,3-b]pyridine-4-carbonitrile], the IC50 is under 0.01 µM. Regarding `Cc1ccc(O)c(C)c1-c1cnc2[nH]c(-c3cnc(OC4COC4)nc3)cc2c1C#N` [Example 53, (S)-5-(3-hydroxy-2,6-dimethylphenyl)-2-(2-(oxetan-3-yloxy)pyrimidin-5-yl)-1H-pyrrolo[2,3-b]pyridine-4-carbonitrile], the IC50 is under 0.01 µM. As to `Cc1ncc(-c2cc3c(C#N)c(-c4c(C)ccc(O)c4C)cnc3[nH]2)c(N)n1` [Example 92, 2-(4-amino-2-methylpyrimidin-5-yl)-5-(3-hydroxy-2,6-dimethylphenyl)-1H-pyrrolo[2,3-b]pyridine-4-carbonitrile], the IC50 was under 0.01 µM.

Regarding `Cc1ccc(O)c(C)c1-c1cnc2[nH]c(-c3cnc(N4CC(C)(O)C4)nc3)c(Cl)c2n1` [Example 17, 1-(5-(7-chloro-2-(3-hydroxy-2,6-dimethylphenyl)-5H-pyrrolo[2,3-b]pyrazin-6-yl)pyrimidin-2-yl)-3-methylazetidin-3-ol], the IC50 was under 0.01 µM.

For the compound `Cc1ccc(O)c(C)c1-c1cnc2[nH]c(-c3cnc(N4CC(C)(O)C4)nc3)cc2c1Cl` [Example 25, (S)-1-(5-(4-chloro-5-(3-hydroxy-2,6-dimethylphenyl)-1H-pyrrolo[2,3-b]pyridin-2-yl)pyrimidin-2-yl)-3-methylazetidin-3-ol], the IC50 was under 0.01 µM. Turning to `COCCOc1ncc(-c2[nH]c3ncc(-c4c(C)ccc(O)c4C)c(C#N)c3c2Cl)cn1` [Example 76, (R)-3-chloro-5-(3-hydroxy-2,6-dimethylphenyl)-2-(2-(2-methoxyethoxy)pyrimidin-5-yl)-1H-pyrrolo[2,3-b]pyridine-4-carbonitrile], the IC50 was under 0.01 µM. With `Cc1ncc(-c2[nH]c3ncc(-c4c(C)ccc(O)c4C)cc3c2Cl)cn1` [Example 79, 3-(3-chloro-2-(2-methylpyrimidin-5-yl)-1H-pyrrolo[2,3-b]pyridin-5-yl)-2,4-dimethylphenol], the IC50 fell in the range of 0.01 to 0.05 µM. Take `COc1cncc(-c2cc3cc(-c4c(C)ccc(O)c4C)cnc3[nH]2)c1` [Example 8, 3-(2-(5-methoxypyridin-3-yl)-1H-pyrrolo[2,3-b]pyridin-5-yl)-2,4-dimethylphenol]: the IC50 fell in the range of 0.01 to 0.05 µM.

Consider `Cc1ccc(O)c(C)c1-c1cnc2[nH]c(-c3cnc(C(N)=O)nc3)cc2c1C#N` [Example 105, (R)-5-(4-cyano-5-(3-hydroxy-2,6-dimethylphenyl)-1H-pyrrolo[2,3-b]pyridin-2-yl)pyrimidine-2-carboxamide], for which the IC50 is under 0.01 µM.
